ChEMBL document CHEMBL1629569, “Widespread dissemination of aminoglycoside resistance genes armA and rmtB in Klebsiella pneumoniae isolates in Taiwan producing CTX-M-type extended-spectrum beta-lactamases” (2009)
≈ marks a conversion by molar mass, not a printed value.

What was measured:
Format in all cases: functional
Klebsiella pneumoniae [1] = experiment: Antimicrobial activity against ESBL-producing Klebsiella pneumoniae clinical isolate assessed as susceptible isolates
Klebsiella pneumoniae [2] = experiment: Antimicrobial activity against ESBL-producing Klebsiella pneumoniae clinical isolate by broth microdilution method
Klebsiella pneumoniae [3] = experiment: Antimicrobial activity against ESBL-producing Klebsiella pneumoniae clinical isolate assessed as resistant isolates

| Compound | Activity (Klebsiella pneumoniae [1]) | MIC50 (Klebsiella pneumoniae [2]) | MIC90 (Klebsiella pneumoniae [2]) | Activity (Klebsiella pneumoniae [3]) |
| --- | --- | --- | --- | --- |
| NCC[C@H](O)C(=O)N[C@@H]1C[C@H](N)[C@@H](O[C@H]2O[C@H](CN)[C@@H](O)[C@H](O)[C@H]2O)[C@H](O)[C@H]1O[C@H]1O[C@H](CO)[C@@H](O)[C@H](N)[C@H]1O [AMIKACIN] | 106 isolates | 32 µg/mL (≈ 54.6 µM) | 64 µg/mL (≈ 109 µM) | 102 isolates |
| CC1(C)S[C@@H]2[C@H](NC(=O)[C@H](N)c3ccccc3)C(=O)N2[C@H]1C(=O)O [AMPICILLIN] | 0 isolates | > 64 µg/mL | > 64 µg/mL | 235 isolates |
| CO/N=C(\C(=O)N[C@@H]1C(=O)N2C(C(=O)O)=C(COC(C)=O)CS[C@H]12)c1csc(N)n1 [CEFOTAXIME] | 12 isolates | 64 µg/mL (≈ 141 µM) | 64 µg/mL (≈ 141 µM) | 146 isolates |
| CO[C@@]1(NC(=O)Cc2cccs2)C(=O)N2C(C(=O)O)=C(COC(N)=O)CS[C@@H]21 [CEFOXITIN] | 102 isolates | 16 µg/mL (≈ 37.4 µM) | 32 µg/mL (≈ 74.9 µM) | 95 isolates |
| CC(C)(O/N=C(\C(=O)N[C@@H]1C(=O)N2C(C(=O)[O-])=C(C[n+]3ccccc3)CS[C@H]12)c1csc(N)n1)C(=O)O [CEFTAZIDIME] | 38 isolates | 32 µg/mL (≈ 58.5 µM) | 32 µg/mL (≈ 58.5 µM) | 158 isolates |
| C[C@@H](O)[C@H]1C(=O)N2C(C(=O)O)=C(SCCNC=N)C[C@H]12 [IMIPENEM ANHYDROUS] | 230 isolates | 0.25 µg/mL (≈ 0.835 µM) | 2 µg/mL (≈ 6.68 µM) | 2 isolates |
| GENTAMICIN | 21% | 16 µg/mL | 16 µg/mL |  |
